Here are results for 23 compounds from ChEMBL document CHEMBL1149498, “Uncompetitive antagonism of AMPA receptors: Mechanistic insights from studies of polyamine toxin derivatives” (J Med Chem, 2006).

The target in test [1] is T1, Glutamate receptor 1 (Rattus norvegicus, UniProt P19490). Description: Antagonist activity against rat GluR1 flop expressed in Xenopus laevis oocyte assessed as inhibition of glutamate-induced current at holding potential -80 mV by two electrode voltage clamp method. It is filed as functional. (In general: In two-electrode clamp one electrode senses voltage and the other passes current.)

Test [2] addresses T2, Glutamate receptor ionotropic, AMPA (Rattus norvegicus, UniProt P19490+P19491+P19492+P19493). The test can be described thus: Antagonist activity against rat brain AMPA receptor expressed in Xenopus laevis oocyte assessed as inhibition of kainate-induced current at holding potential -80 mV by two electrode voltage clamp method. It is filed as functional.
Test [3] addresses T1, Glutamate receptor 1. The test can be described thus: Antagonist activity against rat GluR1 flop expressed in Xenopus laevis oocyte assessed as inhibition of glutamate-induced current at holding potential -60 mV by two electrode voltage clamp method. In kind it is functional.
Test [4] concerns the target T1, Glutamate receptor 1. Description: Antagonist activity against rat GluR1 flop expressed in Xenopus laevis oocyte assessed as inhibition of glutamate-induced current at holding potential -100 mV by two electrode voltage clamp method. It is filed as functional.
Test [5] addresses T2, Glutamate receptor ionotropic, AMPA. The test can be described thus: Antagonist activity against rat brain AMPA receptor expressed in Xenopus laevis oocyte assessed as inhibition of kainate-induced current by two electrode voltage clamp method at holding potential -60 mV.
Test [6] shares this target. The test can be described thus: Antagonist activity against rat brain AMPA receptor expressed in Xenopus laevis oocyte assessed as inhibition of kainate-induced current by two electrode voltage clamp method at holding potential -100 mV.
For test [7] the target is unchanged. Description: Antagonist activity against rat brain AMPA receptor expressed in Xenopus laevis oocyte assessed as inhibition of kainate-induced current by two electrode voltage clamp method at holding potential -40 mV.

T1 sequence (P19490 whole entry): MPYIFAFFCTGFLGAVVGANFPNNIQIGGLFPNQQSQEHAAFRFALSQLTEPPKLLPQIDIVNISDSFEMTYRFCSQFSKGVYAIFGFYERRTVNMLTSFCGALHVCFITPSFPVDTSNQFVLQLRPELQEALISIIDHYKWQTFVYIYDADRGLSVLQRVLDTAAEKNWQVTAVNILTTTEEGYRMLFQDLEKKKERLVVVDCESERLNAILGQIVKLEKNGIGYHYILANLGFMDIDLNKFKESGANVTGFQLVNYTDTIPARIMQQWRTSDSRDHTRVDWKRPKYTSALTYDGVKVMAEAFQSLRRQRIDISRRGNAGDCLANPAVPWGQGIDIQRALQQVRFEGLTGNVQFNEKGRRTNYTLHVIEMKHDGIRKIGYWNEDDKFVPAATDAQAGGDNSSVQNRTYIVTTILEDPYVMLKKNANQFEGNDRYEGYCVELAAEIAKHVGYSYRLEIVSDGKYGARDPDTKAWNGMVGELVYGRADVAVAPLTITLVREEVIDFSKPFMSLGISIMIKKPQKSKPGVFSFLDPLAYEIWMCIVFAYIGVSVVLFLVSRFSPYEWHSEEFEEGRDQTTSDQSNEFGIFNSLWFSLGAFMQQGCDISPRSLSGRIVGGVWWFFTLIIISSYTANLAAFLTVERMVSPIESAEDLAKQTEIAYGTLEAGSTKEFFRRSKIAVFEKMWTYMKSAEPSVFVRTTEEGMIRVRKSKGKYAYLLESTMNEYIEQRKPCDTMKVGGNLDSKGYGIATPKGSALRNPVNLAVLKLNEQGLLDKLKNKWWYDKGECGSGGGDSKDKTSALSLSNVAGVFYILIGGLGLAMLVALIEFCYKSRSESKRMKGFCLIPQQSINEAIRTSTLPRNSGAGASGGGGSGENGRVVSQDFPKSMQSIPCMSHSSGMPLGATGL

For orientation: Ki means a measure of affinity in units of concentration, obtained from inhibition or displacement. The term IC50 denotes the concentration at which inhibition is half-maximal. `CCCC(=O)N[C@@H](Cc1ccc(O)cc1)C(=O)NCCCCCCCNCCCCCCN`: the Ki at Glutamate receptor 1 [1] is 208 nM. In test [2], the IC50 was 45 nM.

Consider `CCCC(=O)N[C@@H](Cc1ccc(O)cc1)C(=O)NCCCCCNCCCCCCCCN`, for which the Ki at Glutamate receptor 1 [1] came out at 330 nM; on Glutamate receptor 1 [3], 2300 nM; at Glutamate receptor 1 [4] it was 37 nM. Moreover, the IC50 in test [2] came out at 160 nM.

Take `CCCC(=O)N[C@@H](Cc1ccc(O)cc1)C(=O)NCCCCCNCCCCCCCN`: the Ki at Glutamate receptor 1 [1] stood at 110 nM; at Glutamate receptor 1 [3] it was 1100 nM; on Glutamate receptor 1 [4], 10 nM. The IC50 in test [2] was determined as 127 nM.

Consider `CCCC(=O)N[C@@H](Cc1ccc(O)cc1)C(=O)NCCCCNCCCCCCN`, for which the inhibitory constant (Ki) on Glutamate receptor 1 [1] was 53 nM. In test [2], the IC50 amounted to 324 nM.

As for `CCCC(=O)N[C@@H](Cc1ccc(O)cc1)C(=O)NCCNCCCCCCN`, the Ki on Glutamate receptor 1 [1] was determined as 208 nM. Also, in test [2], the half-inhibitory concentration (IC50) turned out to be 310 nM.

Regarding `CCCC(=O)N[C@@H](Cc1ccc(O)cc1)C(=O)NCCCNCCCCCCCCN`, the Ki at Glutamate receptor 1 [1] worked out at 350 nM. The half-inhibitory concentration (IC50) in test [2] was determined as 248 nM.

Consider `CCCC(=O)N[C@@H](Cc1ccc(O)cc1)C(=O)NCCCCCCNCCCCCCN`, for which the Ki on Glutamate receptor 1 [1] amounted to 685 nM. In test [2], the IC50 came to 270 nM.

For the compound `CCCC(=O)N[C@@H](Cc1ccc(O)cc1)C(=O)NCCCCCCCCCNCCCCCCN`, the Ki at Glutamate receptor 1 [1] amounted to 37 nM. In addition, the IC50 in test [2] was found to be 86 nM.

Consider `CCCC(=O)N[C@@H](Cc1ccc(O)cc1)C(=O)NCCCCCNCCCCCN`, for which the inhibition constant (Ki) was 95 nM on Glutamate receptor 1 [1], 460 nM at Glutamate receptor 1 [3] and 13 nM on Glutamate receptor 1 [4]. For the same compound, the half-maximal inhibitory concentration (IC50) in test [2] was 207 nM.

As for `CCCC(=O)N[C@@H](Cc1ccc(O)cc1)C(=O)NCCCCCNCCCN`, the inhibition constant Ki at Glutamate receptor 1 [1] stood at 63 nM; at Glutamate receptor 1 [3], 270 nM; on Glutamate receptor 1 [4] it was 14 nM. Moreover, the IC50 in test [2] came to 1100 nM.

In the case of `CCCC(=O)N[C@@H](Cc1ccc(O)cc1)C(=O)NCCCCCNCCCCCCN`, the Ki at Glutamate receptor 1 [1] came out at 3 nM; on Glutamate receptor 1 [3] it was 660 nM; on Glutamate receptor 1 [4], 10 nM. In addition, the half-inhibitory concentration (IC50) in test [2] is 87 nM.

In the case of `CCCC(=O)N[C@@H](Cc1ccc(O)cc1)C(=O)NCCCNCCCCCCN`, the inhibition constant Ki on Glutamate receptor 1 [1] was found to be 126 nM. For the same compound, the concentration for half-maximal inhibition (IC50) in test [2] came to 547 nM.

For the compound `CCCC(=O)N[C@@H](Cc1ccc(O)cc1)C(=O)NCCCCCNCCN`, the values for the inhibition constant Ki at Glutamate receptor 1 [1], on Glutamate receptor 1 [3] and on Glutamate receptor 1 [4] were 410 nM, 1500 nM and 140 nM, respectively. Further, in test [2], the IC50 is 12300 nM.

Take `CCCC(=O)N[C@@H](Cc1ccc(O)cc1)C(=O)NCCCCCNCCCCN`: the results for the Ki at Glutamate receptor 1 [1], at Glutamate receptor 1 [3] and on Glutamate receptor 1 [4] were 68 nM, 450 nM and 13 nM, respectively. Moreover, the IC50 in test [2] came to 283 nM.

Turning to `CCCC(=O)N[C@@H](Cc1ccc(O)cc1)C(=O)NCCCCCNCCCCCCCCCCCCN`, the inhibitory constant (Ki) at Glutamate receptor 1 [1] turned out to be 480 nM; on Glutamate receptor 1 [3] it was 3100 nM; on Glutamate receptor 1 [4], 77 nM.

Take `CCCC(=O)N[C@@H](Cc1ccc(O)cc1)C(=O)NCCCCCCCCCNCCN`: the Ki on Glutamate receptor 1 [1] amounted to 410 nM. Further, the half-inhibitory concentration (IC50) in test [2] worked out at 122 nM.

With `CCCC(=O)N[C@@H](Cc1ccc(O)cc1)C(=O)NCCCCNCCCCCCCN`, the IC50 in test [5] came to 60.1 nM; in test [2] it was 16 nM; in test [6], 3.3 nM; in test [7], 176 nM. On Glutamate receptor 1 [1], the inhibition constant (Ki) turned out to be 38 nM.

With `CCCC(=O)N[C@@H](Cc1ccc(O)cc1)C(=O)NCCCCCNCCCCCCCCCCN`, the figures for the Ki on Glutamate receptor 1 [1], at Glutamate receptor 1 [3] and at Glutamate receptor 1 [4] were 180 nM, 1200 nM and 26 nM, respectively.

For `CCCC(=O)N[C@@H](Cc1ccc(O)cc1)C(=O)NCCCCCCCNCCCCN`, the inhibition constant Ki on Glutamate receptor 1 [1] was determined as 168 nM. In test [2], the IC50 was 138 nM.

As for `CCCC(=O)N[C@@H](Cc1ccc(O)cc1)C(=O)NCCCCCNCCCCCCCCCN`, the Ki at Glutamate receptor 1 [1] was found to be 450 nM; on Glutamate receptor 1 [3] it was 5000 nM; at Glutamate receptor 1 [4] it was 65 nM. The IC50 in test [2] was 798 nM.

As to `CCCC(=O)N[C@@H](Cc1ccc(O)cc1)C(=O)NCCCCCCCCNCCCCCCN`, on Glutamate receptor 1 [1], the Ki worked out at 77 nM. Also, the IC50 in test [2] was found to be 25 nM.

As for `CCCC(=O)N[C@@H](Cc1ccc(O)cc1)C(=O)NCCCCCCCCNCCCN`, the Ki at Glutamate receptor 1 [1] is 65 nM. Besides, in test [2], the half-maximal inhibitory concentration (IC50) came to 39 nM.

For `CCCC(=O)N[C@@H](Cc1ccc(O)cc1)C(=O)NCCCCCCNCCCCCN`, on Glutamate receptor 1 [1], the inhibition constant Ki stood at 468 nM. Besides, the half-maximal inhibitory concentration (IC50) in test [2] is 388 nM.
